Measurements as given in patent US9580396B2, “C6-spiro iminothiadiazine dioxides as BACE inhibitors, compositions, and their use” (Merck Sharp & Dohme Corp., priority 2012, dated 2017).

Assays:
[1] = target: soluble human BACE1 catalytic domain (Homo sapiens (Human), UniProt P56817); assay: BACE1 HTRF FRET Assay; format: biochemical; details: Ki calculated from IC50 using the Cheng-Prusoff equation; QSY7-APPswe-Eu substrate, pH 5.0
Source text: Na^+-Acetate pH 5.0; 1% Brij-35; Glycerol; Dimethyl Sulfoxide (DMSO); Recombinant human soluble BACE1 catalytic domain (>95% pure); APP Swedish mutant peptide substrate (QSY7-APP^swe-Eu): QSY7-EISEVNLDAEFC-Europium-amide.
A homogeneous time-resolved FRET assay can be used to determine IC50 values for inhibitors of the soluble human BACE1 catalytic domain. This assay monitors the increase of 620 nm fluorescence that resulted from BACE1 cleavage of an APPswedish APP^swe mutant peptide FRET substrate (QSY7-EISEVNLDAEFC-Europium-amide). This substrate contains an N-terminal QSY7 moiety that serves as a quencher of the C-terminal Europium fluorophore (620 nm Em). In the absence of enzyme activity, 620 nm fluorescence is low in the assay and increased linearly over 3 hours in the presence of uninhibited BACE1 enzyme Inhibition of BACE1 cleavage of the QSY7-APP^swe-Eu substrate by inhibitors is manifested as a suppression of 620 nm fluorescence.
Varying concentrations of inhibitors at 3× the final desired concentration in a volume of 10 ul are preincubated with purified human BACE1 catalytic domain (3 nM in 10 μl) for 30 minutes at 30° C. in reaction buffer containing 20 mM Na-Acetate pH 5.0, 10% glycerol, 0.1% Brij-35 and 7.5% DSMO. Reactions are initiated by addition of 10 μl of 600 nM QSY7-APP^swe-Eu substrate (200 nM final) to give a final reaction volume of 30 μl in a 384 well Nunc HTRF plate. The reactions are incubated at 30° C. for 1.5 hours. The 620 nm fluorescence is then read on a Rubystar HTRF plate reader (BMG Labtechnologies) using a 50 millisecond delay followed by a 400 millisecond acquisition time window Inhibitor IC50 values are derived from non-linear regression analysis of concentration response curves. Ki values are then calculated from IC50 values using the Cheng-Prusoff equation using a previously determined […] of 8 μM for the QSY7-APP^swe-Eu substrate at BACE1.

[2] = target: purified human autoBACE-2 (Homo sapiens (Human), UniProt Q9Y5Z0); assay: BACE-2 Assay (BACE-HTRF assay); format: biochemical; details: Ki calculated from IC50 using the Cheng-Prusoff equation; QSY7-EISEVNLDAEFC-Eu-amide substrate, pH 5.0; read-out: BACE2 Ki
Procedure: Inhibitor IC50s at purified human autoBACE-2 are determined in a time-resolved endpoint proteolysis assay that measures hydrolysis of the QSY7-[…]-Eu-amide FRET peptide substrate (BACE-HTRF assay). […] DMSO is present at 5% final concentration in the assay. Following laser excitation of sample wells at 320 nm, the fluorescence signal at 620 nm is collected for 400 ms following a 50 μs delay on a RUBYstar HTRF plate reader (BMG Labtechnologies). Raw RFU data is normalized to maximum (1.0 nM BACE/DMSO) and minimum (no enzyme/DMSO) RFU values. […] The Ki values are calculated from the IC50 using the Cheng-Prusoff equation.

Chain of soluble human BACE1 catalytic domain (P56817 75-416): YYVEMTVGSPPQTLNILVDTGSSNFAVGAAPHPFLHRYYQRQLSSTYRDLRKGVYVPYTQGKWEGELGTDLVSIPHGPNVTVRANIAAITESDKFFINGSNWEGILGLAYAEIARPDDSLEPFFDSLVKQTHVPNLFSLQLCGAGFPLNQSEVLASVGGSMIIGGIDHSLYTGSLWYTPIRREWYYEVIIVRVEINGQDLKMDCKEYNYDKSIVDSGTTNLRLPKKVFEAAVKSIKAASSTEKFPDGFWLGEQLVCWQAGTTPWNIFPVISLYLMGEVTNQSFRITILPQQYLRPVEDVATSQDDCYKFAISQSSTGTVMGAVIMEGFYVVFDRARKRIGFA

Row | SMILES | Ki [1] | Ki [2]
1 | CN1C(=N)N[C@@]2(CCOc3ccc(NC(=O)c4ccc(Cl)cn4)cc32)CS1(=O)=O [Example 1a] | 70 nM | 17 nM
2 | COc1ccc(C(=O)Nc2ccc3c(c2)[C@]2(CCO3)CS(=O)(=O)N(C)C(=N)N2)nc1 [Example 1b] | 233 nM | 130 nM
3 | COCC(=O)Nc1ccc2c(c1)[C@]1(CCO2)CS(=O)(=O)N(C)C(=N)N1 [Example 1c] | 2010 nM | 341 nM
4 | CN1C(=N)N[C@@]2(CCOc3ccc(NC(=O)C(F)F)cc32)CS1(=O)=O [Example 1d] | 2280 nM | 728 nM
5 | CN1C(=N)N[C@@]2(CCOc3ccc(NC(=O)c4ccc(OCF)cn4)cc32)CS1(=O)=O [Example 2a] | 91 nM | 59 nM
6 | Cc1nc(C(=O)Nc2ccc3c(c2)[C@]2(CCO3)CS(=O)(=O)N(C)C(=N)N2)co1 [Example 2b] | 142 nM | 20 nM
7 | CN1C(=N)N[C@@]2(CCOc3ccc(NC(=O)c4ccc(C#N)cn4)cc32)CS1(=O)=O [Example 2c] | 26 nM | 51 nM
8 | CN1C(=N)N[C@@]2(CCOc3ccc(NC(=O)c4ncc(C(F)(F)F)cn4)cc32)CS1(=O)=O [Example 2d] | 579 nM | 780 nM
9 | CN1C(=N)N[C@@]2(CCOc3ccc(NC(=O)c4ncc(Cl)cc4F)cc32)CS1(=O)=O [Example 2e] | 49 nM | 9 nM
10 | C#CCOc1cnc(C(=O)Nc2ccc3c(c2)[C@]2(CCO3)CS(=O)(=O)N(C)C(=N)N2)cn1 [Example 2f] | 13 nM | 138 nM
11 | CN1C(=N)N[C@@]2(CCOc3ccc(NC(=O)c4cnc(OCC(F)(F)F)cn4)cc32)CS1(=O)=O [Example 2g] | 70 nM | 699 nM
12 | C#CCOc1ccc(C(=O)Nc2ccc3c(c2)[C@]2(CCO3)CS(=O)(=O)N(C)C(=N)N2)nc1 [Example 2h] | 33 nM | 313 nM
13 | COc1cnc(C(=O)Nc2ccc3c(c2)[C@]2(CCO3)CS(=O)(=O)N(C)C(=N)N2)c(C)c1 [Example 2i] | 168 nM | 29 nM
14 | COc1cnc(C(=O)Nc2ccc3c(c2)[C@]2(CCO3)CS(=O)(=O)N(C)C(=N)N2)c(C)n1 [Example 2j] | 294 nM | 160 nM
15 | Cc1cc(C#N)cnc1C(=O)Nc1ccc2c(c1)[C@]1(CCO2)CS(=O)(=O)N(C)C(=N)N1 [Example 2k] | 15 nM | 26 nM
16 | COc1cnc(C(=O)Nc2ccc3c(c2)[C@]2(CCO3)CS(=O)(=O)N(C)C(=N)N2)cn1 [Example 2l] | 212 nM | 254 nM
17 | CN1C(=N)N[C@@]2(CCOc3ccc(NC(=O)c4cnc(C(F)(F)F)cn4)cc32)CS1(=O)=O [Example 2m] | 303 nM | 1150 nM
18 | CN1C(=N)N[C@@]2(CCOc3ccc(NC(=O)c4cc5ccccn5n4)cc32)CS1(=O)=O [Example 2n] | 1490 nM | 337 nM
19 | CN1C(=N)N[C@@]2(CCOc3ccc(NC(=O)c4ccc(C(F)(F)F)cn4)cc32)CS1(=O)=O [Example 2o] | 77 nM | 283 nM
20 | CN1C(=N)N[C@@]2(CCOc3ccc(NC(=O)c4ccn(C(F)F)n4)cc32)CS1(=O)=O [Example 2p] | 20 nM | 3 nM
21 | Cc1nc(C(=O)Nc2ccc3c(c2)[C@]2(CCO3)CS(=O)(=O)N(C)C(=N)N2)no1 [Example 2q] | 367 nM | 31 nM
22 | CN1C(=N)N[C@@]2(CCOc3ccc(NC(=O)c4cn5cc(C#N)ccc5n4)cc32)CS1(=O)=O [Example 2r] | 604 nM | 6910 nM
23 | CN1C(=N)N[C@@]2(CCOc3ccc(NC(=O)c4cnsn4)cc32)CS1(=O)=O [Example 2s] | 240 nM | 46 nM
24 | CN1C(=N)N[C@@]2(CCOc3ccc(NC(=O)c4ccc(F)cn4)cc32)CS1(=O)=O [Example 2t] | 205 nM | 31 nM
25 | CN1C(=N)N[C@@]2(CCOc3ccc(NC(=O)c4ccc(OC(F)F)cn4)cc32)CS1(=O)=O [Example 2u] | 44 nM | 166 nM
26 | CN1C(=N)N[C@@]2(CCOc3ccc(NC(=O)c4ccc(OC(F)(F)F)cn4)cc32)CS1(=O)=O [Example 2v] | 52 nM | 261 nM

Row | SMILES | Ki [1] | Ki [2]
27 | CN1C(=N)N[C@@]2(CCOc3ccc(NC(=O)c4cnc(OCCF)cn4)cc32)CS1(=O)=O [Example 2w] | 229 nM | 572 nM
28 | CN1C(=N)N[C@@]2(COCc3ccc(NC(=O)c4ccc(Cl)cn4)cc32)CS1(=O)=O [Example 3a] | 272 nM | 58 nM
29 | COc1ccc(C(=O)Nc2ccc3c(c2)[C@]2(COC3)CS(=O)(=O)N(C)C(=N)N2)nc1 [Example 3b] | 1160 nM | 354 nM
30 | CN1C(=N)N[C@@]2(CCCc3ccc(NC(=O)c4ccc(Cl)cn4)cc32)CS1(=O)=O [Example 4a] | 58 nM | 15 nM
31 | COc1ccc(C(=O)Nc2ccc3c(c2)[C@]2(CCC3)CS(=O)(=O)N(C)C(=N)N2)nc1 [Example 4b] | 228 nM | 67 nM
32 | COCC(=O)Nc1ccc2c(c1)[C@]1(CCC2)CS(=O)(=O)N(C)C(=N)N1 [Example 4c] | 2120 nM | 260 nM
33 | CN1C(=N)N[C@@]2(CCCc3ccc(NC(=O)C(F)F)cc32)CS1(=O)=O [Example 4d] | 2580 nM | 515 nM
34 | CN1C(=N)N[C@@]2(CCCc3ccc(NC(=O)c4cn5cc(C#N)ccc5n4)cc32)CS1(=O)=O [Example 5a] | 636 nM | 1130 nM
35 | CN1C(=N)N[C@@]2(CCCc3ccc(NC(=O)c4ccc(F)cn4)cc32)CS1(=O)=O [Example 5b] | 192 nM | 28 nM
36 | CN1C(=N)N[C@@]2(CCCc3ccc(NC(=O)c4ccc(OC(F)F)cn4)cc32)CS1(=O)=O [Example 5c] | 59 nM | 126 nM
37 | CN1C(=N)N[C@@]2(CCCc3ccc(NC(=O)c4ccc(OC(F)(F)F)cn4)cc32)CS1(=O)=O [Example 5d] | 55 nM | 219 nM
38 | CN1C(=N)N[C@@]2(CCCc3ccc(NC(=O)c4cnc(OCCF)cn4)cc32)CS1(=O)=O [Example 5e] | 257 nM | 487 nM
39 | Cc1nc(C(=O)Nc2ccc3c(c2)[C@]2(CCC3)CS(=O)(=O)N(C)C(=N)N2)no1 [Example 5f] | 314 nM | 16 nM
40 | CN1C(=N)N[C@@]2(CCCc3ccc(NC(=O)c4ccc(OCF)cn4)cc32)CS1(=O)=O [Example 5g] | 77 nM | 33 nM
41 | Cc1nc(C(=O)Nc2ccc3c(c2)[C@]2(CCC3)CS(=O)(=O)N(C)C(=N)N2)co1 [Example 5h] | 108 nM | 11 nM
42 | CN1C(=N)N[C@@]2(CCCc3ccc(NC(=O)c4ccc(C#N)cn4)cc32)CS1(=O)=O [Example 5i] | 19 nM | 44 nM
43 | CN1C(=N)N[C@@]2(CCCc3ccc(NC(=O)c4ncc(C(F)(F)F)cn4)cc32)CS1(=O)=O [Example 5j] | 468 nM | 423 nM
44 | CN1C(=N)N[C@@]2(CCCc3ccc(NC(=O)c4ncc(Cl)cc4F)cc32)CS1(=O)=O [Example 5k] | 54 nM | 8 nM
45 | C#CCOc1cnc(C(=O)Nc2ccc3c(c2)[C@]2(CCC3)CS(=O)(=O)N(C)C(=N)N2)cn1 [Example 5l] | 11 nM | 77 nM
46 | CN1C(=N)N[C@@]2(CCCc3ccc(NC(=O)c4cnc(OCC(F)(F)F)cn4)cc32)CS1(=O)=O [Example 5m] | 72 nM | 508 nM
47 | C#CCOc1ccc(C(=O)Nc2ccc3c(c2)[C@]2(CCC3)CS(=O)(=O)N(C)C(=N)N2)nc1 [Example 5n] | 42 nM | 221 nM
48 | COc1cnc(C(=O)Nc2ccc3c(c2)[C@]2(CCC3)CS(=O)(=O)N(C)C(=N)N2)c(C)c1 [Example 5o] | 119 nM | 17 nM
49 | COc1cnc(C(=O)Nc2ccc3c(c2)[C@]2(CCC3)CS(=O)(=O)N(C)C(=N)N2)c(C)n1 [Example 5p] | 224 nM | 123 nM
50 | Cc1cc(C#N)cnc1C(=O)Nc1ccc2c(c1)[C@]1(CCC2)CS(=O)(=O)N(C)C(=N)N1 [Example 5q] | 9 nM | 17 nM
51 | COc1cnc(C(=O)Nc2ccc3c(c2)[C@]2(CCC3)CS(=O)(=O)N(C)C(=N)N2)cn1 [Example 5r] | 144 nM | 177 nM
